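Step 1: Grow cells in 96-well plates. Step 2: Expose to compound for 48 hours at 5 concentrations. Step 3: Interpolate endpoints linearly; if unreached, use highest concentration. GI50: concentration for 50% inhibition of growth. TGI is the concentration that stops growth completely.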
Experiments:
Experiment in all cases: DTP human tumour cell line panel, 48 h
[1] = test system: UACC-62 melanoma
[2] = test system: T-47D breast
[3] = test system: SK-OV-3 ovarian
[4] = test system: OVCAR-3 ovarian
[5] = test system: OVCAR-8 ovarian
[6] = test system: RPMI-8226 leukemia
[7] = test system: CCRF-CEM leukemia
[8] = test system: HT29 colon
[9] = test system: NCI-H226 lung
[10] = test system: MALME-3M melanoma

Row | Compound | TGI [1] | TGI [2] | TGI [3] | TGI [4] | TGI [5] | TGI [6] | TGI [7] | TGI [8] | GI50 [2] | GI50 [3] | GI50 [6] | GI50 [7] | GI50 [9] | TGI [9] | GI50 [8] | TGI [10] | GI50 [1] | GI50 [10] | GI50 [5]
1 | CCOc1ncn(-c2ccc(NC(=S)Nc3cccc(O)c3)cc2)n1 | > 100 µM | > 100 µM | > 100 µM | > 100 µM | > 100 µM | > 100 µM | > 100 µM | > 100 µM | – | – | – | – | – | – | – | – | – | – | –
2 | ClCCN(CCCl)Cc1ccc(Nc2ccnc3cc(Cl)ccc23)cc1 | – | 3.69 µM | 4.52 µM | – | – | 5.41 µM | 2.99 µM | 4.73 µM | 1.09 µM | 1.44 µM | 1.72 µM | 0.265 µM | 1.41 µM | 3.78 µM | 1.28 µM | – | – | – | –
3 | COc1ccc(C(=O)C2CC3(CCC2(O)c2ccc(OC)cc2)CC(=O)Nc2ccccc2C3=O)cc1 (configuration not stated) | > 100 µM | > 100 µM | > 100 µM | > 100 µM | > 100 µM | – | > 100 µM | > 100 µM | – | – | – | – | – | > 100 µM | – | > 100 µM | – | – | –
4 | CC1(C)CCc2c(cc3c(c2O)CCC(C)(C)O3)O1 | > 100 µM | > 100 µM | > 100 µM | > 100 µM | > 100 µM | – | > 100 µM | > 100 µM | – | – | – | – | – | > 100 µM | – | > 100 µM | – | – | –
5 | Cc1ccc(OP2(=O)Oc3ccc4ccccc4c3CN2c2ccc(Cl)cc2)cc1C (configuration not stated) | > 100 µM | – | > 100 µM | > 100 µM | > 100 µM | > 100 µM | > 100 µM | > 100 µM | – | – | – | – | – | > 100 µM | – | > 100 µM | – | – | –
6 | Nc1cc2c(cc1[N+](=O)[O-])[nH]c1c(-c3ccccc3)nccc12 | 27.8 µM | – | 55.9 µM | 48.5 µM | > 100 µM | > 100 µM | 74.7 µM | 46.8 µM | – | – | – | – | – | 56.5 µM | – | 52.1 µM | – | – | –
7 | C=C/C(C)=C/[C@H](C)C(=O)C[C@H](O)CC1CC(=O)NC(=O)C1 | > 100 µM | – | > 100 µM | > 100 µM | > 100 µM | > 100 µM | > 100 µM | > 100 µM | – | – | – | – | – | > 100 µM | – | > 100 µM | – | – | –
8 | COC[C@H]1C(=O)NCC(=O)N2NCCC[C@H]2C(=O)N(O)[C@H](C)C(=O)O[C@@H](C(C)C)[C@H](NC(=O)[C@](C)(O)[C@]2(O)CC[C@@H](CC(C)C)[C@H](C)O2)C(=O)N2NCCC[C@@H]2C(=O)N1O | 0.0312 µM | 0.0332 µM | 0.0306 µM | – | 0.0306 µM | – | – | 0.0293 µM | 0.0149 µM | 0.0163 µM | – | – | – | – | 0.0144 µM | 0.0291 µM | 0.0154 µM | 0.0142 µM | < 0.01 µM
9 | CO/C(=N\N=C(/C)C(F)(F)F)c1ccncc1 | > 100 µM | > 100 µM | > 100 µM | > 100 µM | > 100 µM | > 100 µM | > 100 µM | > 100 µM | – | – | – | – | – | > 100 µM | – | > 100 µM | – | – | –
